# Values of other authors, collected in patent US20150361500A1, “BIOMARKERS FOR DIAGNOSIS AND TREATMENT OF ACNE VULGARIS” (DermTech International, priority 2013, published 2015).
# System: acne
compound,measurement,setting,value
O=C(OOC(=O)c1ccccc1)c1ccccc1 [Benzoyl peroxide],tolerability,2.5% concentration compared with 5 and 10%,usually better tolerated
same,effectiveness in acne treatment,5 and 10% concentrations compared with 2.5%,not significantly more effective
same,skin reactions,gel or cream applied to affected areas,commonly causes initial dryness and sometimes irritation
